Results from ChEMBL document CHEMBL3885861, “Open TG-GATES”.

Organism: Rattus norvegicus
Test: Open TG-GATES - Regimen: Single
Type: toxicity, organism-based, Sprague-Dawley
Set-up: regimen Single, gender Male, age 6 weeks
Settings: in vivo, po, 200 mg/kg, route gavage, dose level Middle; for APTT / Bas / Eos / Fbg / Hb / Ht / Lym / MCH / MCHC / MCV / Mono / Neu / PT / Plat / RBC / Ret / WBC: tissue Blood; for KIDNEY_L / KIDNEY_R / KIDNEY_TOTAL: tissue Kidney; for LIVER: tissue Liver; for A/G / ALP / ALT / AST / BUN / CRE / Ca / Cl / DBIL / GLC / IP / K / LDH / Na / PL / RALB / TBIL / TC / TG / TP / gamma-GTP: tissue Plasma

SMILES: C[C@](N)(Cc1ccc(O)c(O)c1)C(=O)O [METHYLDOPA]
- TERMINAL_BW (3 h): 187.9 g
- APTT (3 h): 15.7 s
- Bas (3 h): 0.2%
- Eos (3 h): 0.8%
- Fbg (3 h): 274 mg/dL
- Hb (3 h): 13.1 g/dL
- Ht (3 h): 39.2%
- Lym (3 h): 79%
- MCH (3 h): 21.5 pg
- MCHC (3 h): 33.4%
- MCV (3 h): 64.6 fL
- Mono (3 h): 3.4%
- Neu (3 h): 15.8%
- PT (3 h): 12.4 s
- Plat (3 h): 105.6 x10_4/uL
- RBC (3 h): 607 x10_4/ul
- Ret (3 h): 10.7%
- WBC (3 h): 91.2 x10_2/uL
- KIDNEY_L (3 h): 0.9 g
- KIDNEY_R (3 h): 0.8 g
- KIDNEY_TOTAL (3 h): 1.7 g
- LIVER (3 h): 7.8 g
- A/G (3 h): 0.9
- ALP (3 h): 1861.2 IU/L
- ALT (3 h): 55 IU/L
- AST (3 h): 80.2 IU/L
- BUN (3 h): 9 mg/dL
- CRE (3 h): 0.1 mg/dL
- Ca (3 h): 11.4 mg/dL
- Cl (3 h): 107.2 meq/L
- DBIL (3 h): 0.008 mg/dL
- GLC (3 h): 205.8 mg/dL
- IP (3 h): 9.8 mg/dL
- K (3 h): 4.6 meq/L
- LDH (3 h): 64.4 IU/L
- Na (3 h): 142.2 meq/L
- PL (3 h): 129.2 mg/dL
- RALB (3 h): 2.6 g/dL
- TBIL (3 h): 0.058 mg/dL
- TC (3 h): 78.6 mg/dL
- TG (3 h): 45 mg/dL
- TP (3 h): 5.4 g/dL
- gamma-GTP (3 h): 1.2 IU/L
- TERMINAL_BW (6 h): 189 g
- APTT (6 h): 16.4 s
- Bas (6 h): 0%
- Eos (6 h): 0.6%
- Fbg (6 h): 267.4 mg/dL
- Hb (6 h): 13.5 g/dL
- Ht (6 h): 41.1%
- Lym (6 h): 73.8%
- MCH (6 h): 21.1 pg
- MCHC (6 h): 32.8%
- MCV (6 h): 64.3 fL
- Mono (6 h): 3%
- Neu (6 h): 22.2%
- PT (6 h): 12.2 s
- Plat (6 h): 120.2 x10_4/uL
- RBC (6 h): 640.2 x10_4/ul
- Ret (6 h): 11.7%
- WBC (6 h): 56.8 x10_2/uL
- KIDNEY_L (6 h): 0.8 g
- KIDNEY_R (6 h): 0.8 g
- KIDNEY_TOTAL (6 h): 1.6 g
- LIVER (6 h): 7.9 g
- A/G (6 h): 0.9
- ALP (6 h): 1438.2 IU/L
- ALT (6 h): 48.2 IU/L
- AST (6 h): 71.6 IU/L
- BUN (6 h): 6.6 mg/dL
- CRE (6 h): 0.1 mg/dL
- Ca (6 h): 11.8 mg/dL
- Cl (6 h): 107 meq/L
- DBIL (6 h): 0.006 mg/dL
- GLC (6 h): 219.4 mg/dL
- IP (6 h): 13 mg/dL
- K (6 h): 5.3 meq/L
- LDH (6 h): 58.8 IU/L
- Na (6 h): 144.6 meq/L
- PL (6 h): 130.2 mg/dL
- RALB (6 h): 2.5 g/dL
- TBIL (6 h): 0.054 mg/dL
- TC (6 h): 85.8 mg/dL
- TG (6 h): 45.8 mg/dL
- TP (6 h): 5.3 g/dL
- gamma-GTP (6 h): 1 IU/L
- TERMINAL_BW (9 h): 186.6 g
- APTT (9 h): 16.1 s
- Bas (9 h): 0%
- Eos (9 h): 1.2%
- Fbg (9 h): 268.6 mg/dL
- Hb (9 h): 13.1 g/dL
- Ht (9 h): 38.8%
- Lym (9 h): 77.6%
- MCH (9 h): 22.3 pg
- MCHC (9 h): 33.8%
- MCV (9 h): 66 fL
- Mono (9 h): 2.8%
- Neu (9 h): 17.6%
- PT (9 h): 12.2 s
- Plat (9 h): 121.1 x10_4/uL
- RBC (9 h): 588.8 x10_4/ul
- Ret (9 h): 10.8%
- WBC (9 h): 53.5 x10_2/uL
- KIDNEY_L (9 h): 0.8 g
- KIDNEY_R (9 h): 0.8 g
- KIDNEY_TOTAL (9 h): 1.6 g
- LIVER (9 h): 7.2 g
- A/G (9 h): 0.9
- ALP (9 h): 1466.4 IU/L
- ALT (9 h): 43.4 IU/L
- AST (9 h): 71.8 IU/L
- BUN (9 h): 7 mg/dL
- CRE (9 h): 0.1 mg/dL
- Ca (9 h): 11 mg/dL
- Cl (9 h): 107 meq/L
- DBIL (9 h): 0.008 mg/dL
- GLC (9 h): 203.2 mg/dL
- IP (9 h): 11.2 mg/dL
- K (9 h): 4.9 meq/L
- LDH (9 h): 57.4 IU/L
- Na (9 h): 143.6 meq/L
- PL (9 h): 131.6 mg/dL
- RALB (9 h): 2.5 g/dL
- TBIL (9 h): 0.07 mg/dL
- TC (9 h): 83.6 mg/dL
- TG (9 h): 49.6 mg/dL
- TP (9 h): 5.3 g/dL
- gamma-GTP (9 h): 1 IU/L
- TERMINAL_BW (24 h): 192.7 g
- APTT (24 h): 16 s
- Bas (24 h): 0%
- Eos (24 h): 1%
- Fbg (24 h): 251.2 mg/dL
- Hb (24 h): 13.2 g/dL
- Ht (24 h): 39.1%
- Lym (24 h): 75.4%
- MCH (24 h): 22.1 pg
- MCHC (24 h): 33.9%
- MCV (24 h): 65.1 fL
- Mono (24 h): 2.8%
- Neu (24 h): 20.4%
- PT (24 h): 12.6 s
- Plat (24 h): 115.8 x10_4/uL
- RBC (24 h): 600.4 x10_4/ul
- Ret (24 h): 9.3%
- WBC (24 h): 76.2 x10_2/uL
- KIDNEY_L (24 h): 0.9 g
- KIDNEY_R (24 h): 0.8 g
- KIDNEY_TOTAL (24 h): 1.7 g
- LIVER (24 h): 8.9 g
- A/G (24 h): 0.9
- ALP (24 h): 1671.8 IU/L
- ALT (24 h): 58.2 IU/L
- AST (24 h): 80.8 IU/L
- BUN (24 h): 15.8 mg/dL
- CRE (24 h): 0.2 mg/dL
- Ca (24 h): 11.4 mg/dL
- Cl (24 h): 107.6 meq/L
- DBIL (24 h): 0.014 mg/dL
- GLC (24 h): 191 mg/dL
- IP (24 h): 8.6 mg/dL
- K (24 h): 4.6 meq/L
- LDH (24 h): 73.6 IU/L
- Na (24 h): 144.4 meq/L
- PL (24 h): 136.4 mg/dL
- RALB (24 h): 2.6 g/dL
- TBIL (24 h): 0.064 mg/dL
- TC (24 h): 80 mg/dL
- TG (24 h): 68.6 mg/dL
- TP (24 h): 5.5 g/dL
- gamma-GTP (24 h): 1 IU/L
